Measured values as given in ChEMBL document CHEMBL1130908, “Diastereoselective two-directional synthesis and cation transport ability of the central tristetrahydrofuranyl unit of meso polyether glabrescol as naturally occurring podand” (Bioorg Med Chem Lett, 1998).
Values after ≈ are worked out from the molar mass of the structure shown.

Assay: Compound was evaluated for cytotoxic activity against KB cells.
Type: functional, cell-based
Conditions: Homo sapiens

| SMILES | IC50 [µg/mL] |
| --- | --- |
| CC(=O)O[C@@H](CC[C@@H](OC(C)=O)[C@]1(C)CC[C@H]([C@@](C)(O)CCC=C(C)C)O1)[C@@]1(C)CC[C@H]([C@@](C)(O)CCC=C(C)C)O1 | > 100 |
| CC(=O)O[C@@H](CC[C@@H](O)[C@]1(C)CC[C@H]([C@@](C)(O)CCC=C(C)C)O1)[C@@]1(C)CC[C@H]([C@@](C)(O)CCC=C(C)C)O1 | 0.52 (≈ 0.941 µM) |
| CC(C)=CCC[C@](C)(O)[C@H]1CC[C@](C)([C@@H]2CC[C@H]([C@]3(C)CC[C@@H]([C@](C)(O)CCC=C(C)C)O3)O2)O1 | 7 (≈ 14.2 µM) |
| CC(C)(O)/C=C/C[C@](C)(O)[C@H]1CC[C@@](C)([C@H]2CC[C@H]([C@]3(C)CC[C@H]([C@@](C)(O)C/C=C/C(C)(C)OO)O3)O2)O1 | 5.3 (≈ 9.8 µM) |
